Measurements reported in patent US7029857B1, “Processes for obtaining compounds employing SNORF72 receptors” (H. Lundbeck A/S, priority 1999, dated 2006).
Where two headings read alike, the source gives them in different places. No end group written: not given here.

Legend:
SNORF72 [1] = biological target: T1, SNORF72 (Homo sapiens, UniProt Q9GZQ4, A395T); assay: Intracellular Ca2+ release (FLIPR) in SNORF72-transfected COS-7 cells; assay type: cell-based; conditions: SNORF72, data not shown
T1 construct: expressed in transfected cells; host or cells: COS-7 (transient, DEAE-dextran)
T1 sequence (Q9GZQ4 whole entry A395T): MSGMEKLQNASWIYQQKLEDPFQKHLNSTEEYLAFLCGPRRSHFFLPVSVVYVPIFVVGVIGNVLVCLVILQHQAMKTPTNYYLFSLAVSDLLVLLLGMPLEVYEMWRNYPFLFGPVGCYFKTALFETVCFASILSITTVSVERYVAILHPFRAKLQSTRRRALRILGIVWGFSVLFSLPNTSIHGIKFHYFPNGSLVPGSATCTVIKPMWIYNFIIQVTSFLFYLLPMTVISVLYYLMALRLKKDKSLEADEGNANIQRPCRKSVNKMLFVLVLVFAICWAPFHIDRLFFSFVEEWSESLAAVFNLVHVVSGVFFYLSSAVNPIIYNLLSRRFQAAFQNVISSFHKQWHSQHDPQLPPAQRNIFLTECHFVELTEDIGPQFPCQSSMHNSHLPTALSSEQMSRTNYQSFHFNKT
Procedure: (§1) A typical protocol for the DEAE-dextran method as applied to COS-7 and HEK293 cells is described as follows. Cells to be used for transfection are split 24 hours prior to the transfection to provide flasks which are 70–80% confluent at the time of transfection. Briefly, 8 μg of receptor DNA plus 8 μg of any additional DNA needed (e.g. Gα protein expression vector, reporter construct, antibiotic resistance marker, mock vector, etc.) are added to 9 ml of complete DMEM plus DEAE-dextran mixture (10 mg/ml in PBS). Cells plated into a T225 flask (sub-confluent) are washed once with PBS and the DNA mixture is added to each flask. The cells are allowed to incubate for 30 minutes at 37° C., 5% CO2. Following the incubation, 36 ml of complete DMEM with 80 μM chloroquine is added to each flask and allowed to incubate an additional 3 hours. The medium is then aspirated and 24 ml of complete medium containing 10% DMSO for exactly 2 minutes and then aspirated. The cells are then washed 2 times with PBS and 30 ml of complete DMEM added to each flask. The cells are then allowed to incubate over night. The next day the cells are harvested by trypsinization and reseeded into 96 well plates.
(§2) Cells expressing the receptor of interest are plated into clear, flat-bottom, black-walled 96-well plates (Costar) at a density of 80,000–150,000 cells per well and allowed to incubate for 48 hr at 5% CO2, 37° C. The growth medium is aspirated and 100 μL of loading medium containing Fluo-3 dye is added to each well. The loading medium contains: 20 mM HEPES (Sigma), 0.1% BSA (Sigma), dye/pluronic acid mixture (e.g. 1 mM Fluo-3/AM (Molecular Probes) and 10% pluronic acid (Molecular Probes) mixed immediately before use), and 2.5 mM probenecid (Sigma)(prepared fresh). The cells are allowed to incubate for about 1 hour at 5% CO2, 37° C.
(§3) The compounds of interest are diluted in wash buffer (Hank's BSS (without phenol red), 20 mM HEPES, 2.5 mM probenecid) to a 4× final concentration and aliquoted into a clear v-bottom plate (Nunc). Following the dye incubation, the cells are washed 4 times to remove excess dye using a Denley plate washer. 100 μL final volume of wash buffer is then added to each cell well. Compounds are added to the cell plates and responses are measured using the FLIPR™ instrument. The data are then collected and analyzed using the FLIPR™ software and Graphpad Prism.
(§4) COS-7 cells were transiently transfected with SNORF62, SNORF72 or vector DNA (mock) as described in Materials and Methods.

SNORF72 [2] = biological target: T1, SNORF72; assay: Displacement of [125I]rat NMU-23 binding in SNORF72-transfected COS-7 membranes; conditions: for displacement of [125I]rat NMU-23 binding: SNORF72 membranes
Procedure: (§5) The specifics of preparing such cell membranes may in some cases be determined by the nature of the ensuing assay but typically involve harvesting whole cells and disrupting the cell pellet by sonication in ice cold buffer (e.g. 20 mM Tris HCl, mM EDTA, pH 7.4 at 4° C.). The resulting crude cell lysate is cleared of cell debris by low speed centrifugation at 200×g for 5 min at 4° C. The cleared supernatant is then centrifuged at 40,000×g for 20 min at 4° C., and the resulting membrane pellet is washed by suspending in ice cold buffer and repeating the high speed centrifugation step. The final washed membrane pellet is resuspended in assay buffer. Protein concentrations are determined by the method of Bradford (1976) using bovine serum albumin as a standard. The membranes may be used immediately or frozen for later use.
(§6) Radioligand binding assays were performed by diluting membranes prepared from cells expressing the receptor in 50 mM Tris buffer (pH=7.4 at 0° C.) containing 0.1% bovine serum albumin (Sigma), aprotinin (0.005 mg/ml, Boehringer Mannheim) and bestatin (0.1 mM, Sigma) as protease inhibitors. The final protein concentration in the assay was 12–40 μg/ml. […] The bound ligand was separated from free by filtration through GF/B filters presoaked in 0.5% polyethyleneimine (PEI), using a Tomtec (Wallac) vacuum filtration device. After addition of Ready Safe (Beckman) scintillation fluid, bound radioactivity was quantitated using a Trilux (Wallac) scintillation counter (approximately 40% counting efficiency of bound counts). Data was fit to non-linear curves using GraphPad Prism.
(§7) In this manner, agonist or antagonist compounds that bind to the receptor may be identified as they inhibit the binding of the labeled ligand to the membrane protein of cells expressing the said receptor. Non-specific binding was defined as the amount of radioactivity remaining after incubation of membrane protein in the presence of 100 nM of the unlabeled peptide corresponding to the radioligand used. In equilibrium saturation binding assays membrane preparations or intact cells transfected with the receptor are incubated in the presence of increasing concentrations of the labeled compound to determine the binding affinity of the labeled ligand.

SNORF62 [3] = biological target: T2, SNORF62 (Homo sapiens, UniProt Q9HB89); assay: Intracellular Ca2+ release (FLIPR) in SNORF62-transfected COS-7 cells; assay type: cell-based; set-up: The SNORF62 cDNA codes for a protein of 426 amino acids; expressed in transfected cells; host or cells: COS-7 (transient, DEAE-dextran); conditions: SNORF62, data not shown
T2 sequence (Q9HB89 1-426): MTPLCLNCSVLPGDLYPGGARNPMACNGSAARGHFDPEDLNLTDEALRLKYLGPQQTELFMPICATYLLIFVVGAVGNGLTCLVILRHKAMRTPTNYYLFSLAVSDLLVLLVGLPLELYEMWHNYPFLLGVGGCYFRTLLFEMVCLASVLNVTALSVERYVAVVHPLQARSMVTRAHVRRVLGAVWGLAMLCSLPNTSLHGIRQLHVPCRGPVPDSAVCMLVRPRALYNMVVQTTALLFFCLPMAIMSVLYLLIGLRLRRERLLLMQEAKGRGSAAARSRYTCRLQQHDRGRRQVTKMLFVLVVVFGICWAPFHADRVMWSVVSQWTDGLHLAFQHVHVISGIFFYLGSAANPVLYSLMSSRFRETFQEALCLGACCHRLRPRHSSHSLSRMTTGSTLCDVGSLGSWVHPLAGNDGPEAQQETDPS
Procedure: as §1, §2, §3, §4

SNORF62 [4] = biological target: T2, SNORF62; assay: Displacement of [125I]rat NMU-23 binding in SNORF62-transfected COS-7 membranes; set-up: The SNORF62 cDNA codes for a protein of 426 amino acids; expressed in transfected cells; host or cells: COS-7 (transient, DEAE-dextran); conditions: for displacement of [125I]rat NMU-23 binding: SNORF62 membranes
Procedure: as §5, §6, §7

| activate the receptors in transfected COS-7 cells (SNORF72 [1]) | displacement of [125I]rat NMU-23 binding (SNORF72 [2]) | activate the receptors in transfected COS-7 cells (SNORF62 [3]) | displacement of [125I]rat NMU-23 binding (SNORF62 [4]) | Ki (SNORF72 [2]; binding affinity, SNORF72-transfected COS-7 cells, unit printed in cell (Table 1A), read-out: SNORF72 Avg Ki) [µM] | Ki (SNORF72 [2]; displacement of [125I]rat NMU-23 (0.05-0.1 nM), n = 2 (Table 2), read-out: SNORF72 Avg pKi (converted)) [µM] | Ki (SNORF62 [4]; binding affinity, SNORF62-transfected COS-7 cells, unit printed in cell (Table 1A), read-out: SNORF62 Avg Ki) [µM] | Ki (SNORF62 [4]; displacement of [125I]rat NMU-23 (0.05-0.1 nM), n = 2 (Table 2), read-out: SNORF62 Avg pKi (converted)) [µM] | Compound |
| --- | --- | --- | --- | --- | --- | --- | --- | --- |
| did not | did not displace binding | did not | did not displace binding | > 10 | > 10 | > 10 | > 10 | CC[C@H](C)[C@H](NC(=O)[C@H](Cc1ccc(O)cc1)NC(=O)[C@H](CCCNC(=N)N)NC(=O)[C@H](CCCNC(=N)N)NC(=O)[C@H](CC(C)C)NC(=O)[C@H](CCC(N)=O)NC(=O)[C@@H](NC(=O)[C@H](CCC(=O)O)NC(=O)[C@H](Cc1ccc(O)cc1)NC(=O)[C@H](CCC(N)=O)NC(=O)[C@H](C)NC(=O)[C@H](CCCNC(=N)N)NC(=O)[C@H](CCC(N)=O)NC(=O)[C@H](CCC(=O)O)NC(=O)[C@H](Cc1c[nH]cn1)NC(=O)[C@@H](NC(=O)[C@H](C)NC(=O)[C@H](Cc1ccc(O)cc1)NC(=O)[C@H](CC(=O)O)NC(=O)CNC(=O)[C@@H]1CCCN1C(=O)[C@H](Cc1ccc(O)cc1)NC(=O)[C@H](CCSC)NC(=O)[C@@H]1CCCN1C(=O)[C@H](CCC(=O)O)NC(=O)[C@H](CC(C)C)NC(=O)[C@@H]1CCCN1C(=O)[C@H](C)N)[C@@H](C)O)[C@@H](C)O)C(=O)N[C@@H](CC(N)=O)C(=O)N[C@H](C(=O)N[C@@H](CC(C)C)C(=O)N[C@H](C(=O)N[C@@H](CCCNC(=N)N)C(=O)N1CCC[C@H]1C(=O)N[C@@H](CCCNC(=N)N)C(=O)N[C@@H](Cc1ccc(O)cc1)C(N)=O)[C@@H](C)O)[C@@H](C)O [rat PP] |
| did not | did not displace binding | did not | did not displace binding | – | – | – | – | APSEPHHPGDQATQDQLAQYYSDLYQYITFVTRPRF-NH2 (C-terminus assumed) [frog PP] |

| Compound | activate the receptors in transfected COS-7 cells (SNORF72 [1]) | displacement of [125I]rat NMU-23 binding (SNORF72 [2]) | activate the receptors in transfected COS-7 cells (SNORF62 [3]) | displacement of [125I]rat NMU-23 binding (SNORF62 [4]) | Ki (SNORF72 [2]; binding affinity, SNORF72-transfected COS-7 cells, unit printed in cell (Table 1A), read-out: SNORF72 Avg Ki) [µM] | Ki (SNORF72 [2]; displacement of [125I]rat NMU-23 (0.05-0.1 nM), n = 2 (Table 2), read-out: SNORF72 Avg pKi (converted)) [µM] | Ki (SNORF62 [4]; binding affinity, SNORF62-transfected COS-7 cells, unit printed in cell (Table 1A), read-out: SNORF62 Avg Ki) [µM] | Ki (SNORF62 [4]; displacement of [125I]rat NMU-23 (0.05-0.1 nM), n = 2 (Table 2), read-out: SNORF62 Avg pKi (converted)) [µM] |
| --- | --- | --- | --- | --- | --- | --- | --- | --- |
| CC[C@H](C)[C@H](NC(=O)[C@H](CO)NC(=O)[C@H](CC(N)=O)NC(=O)[C@H](CC(C)C)NC(=O)[C@H](Cc1ccc(O)cc1)NC(=O)[C@H](CCCCN)NC(=O)[C@H](CCCCN)NC(=O)[C@@H](NC(=O)[C@H](C)NC(=O)[C@H](CCSC)NC(=O)[C@H](CCC(N)=O)NC(=O)[C@H](CCCCN)NC(=O)[C@H](CCCNC(=N)N)NC(=O)[C@H](CC(C)C)NC(=O)[C@H](CCCNC(=N)N)NC(=O)[C@@H](NC(=O)[C@H](Cc1ccc(O)cc1)NC(=O)[C@H](CC(N)=O)NC(=O)[C@H](CC(=O)O)NC(=O)[C@@H](NC(=O)[C@H](Cc1ccccc1)NC(=O)[C@@H](NC(=O)[C@H](C)NC(=O)[C@H](CC(=O)O)NC(=O)[C@H](CO)NC(=O)[C@@H](N)Cc1c[nH]cn1)C(C)C)[C@@H](C)O)[C@@H](C)O)C(C)C)C(=O)N[C@@H](CC(C)C)C(=O)N[C@@H](CC(N)=O)C(N)=O [VIP] | did not | did not displace binding | did not | did not displace binding | – | – | – | – |
